Experimental data: US20060069132A1, “Azolecarboxamide herbicides” (priority 2004, published 2006)
Like-named read-outs stand apart in the source and are kept apart here.

Experiments:
velvetleaf [1] = test: Test A pre-/postemergence herbicide test; assay type: in vivo, Abutilon theophrasti; settings: for pest or weed control at 500 g/ha / pest or weed control at 2000 g/ha: Abutilon theophrasti, 240 h
How it was run: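 Greenhouse injury scoring (0–100, complete control = 100) at approximately ten days follows simultaneous pre- and postemergence application. Soil received a directed spray after seeding; seedlings of 2–10 cm at the one- to two-leaf stage were sprayed to runoff.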

corn = test: Test B pre-/postemergence herbicide test; assay type: in vivo, Zea mays
How it was run: (§1)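 Flooded paddy rice and barnyardgrass were treated at the 2-leaf stage; upland plantings received compound either on sown seed or on 1- to 4-leaf seedlings. All were kept 13–15 days in a greenhouse and scored visually, 0–100, relative to untreated plants.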

large crabgrass = test: Test B pre-/postemergence herbicide test; assay type: in vivo, Digitaria sanguinalis
How it was run: as §1

Surinam grass = test: Test C pre-/postemergence herbicide test; assay type: in vivo, Urochloa decumbens
How it was run: (§2)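 Pre/post spray; non-phytotoxic solvent + surfactant. Post-timing 1–4 leaves, 2–18 cm. Read-out: visual % control vs untreated, day 12–14, greenhouse.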

cocklebur = test: Test C pre-/postemergence herbicide test; assay type: in vivo, Xanthium strumarium
How it was run: as §2

eastern black nightshade = test: Test C pre-/postemergence herbicide test; assay type: in vivo, Solanum ptycanthum; settings: for Plant response rating, Nightshade / Plant response rating (0 = no effect, 100 = complete control), Nightshade: preemergence
How it was run: as §2

pigweed = test: Test C pre-/postemergence herbicide test; assay type: in vivo, Amaranthus retroflexus
How it was run: as §2

soybean = test: Test C pre-/postemergence herbicide test; assay type: in vivo, Glycine max
How it was run: as §2

velvetleaf [2] = test: Test C pre-/postemergence herbicide test; assay type: in vivo, Abutilon theophrasti
How it was run: as §2

[3] = Postemergence, 500 g ai/ha, 0 to 100 scale, 0 no effect, 100 complete control
[4] = Postemergence, 2000 g ai/ha, 0 to 100 scale, 0 no effect, 100 complete control
[5] = Preemergence, 2000 g ai/ha, visual rating, 0 to 100 scale (0 no effect, 100 complete control)
[6] = preemergence, 500 g ai/ha, visual injury, 0 to 100 scale (0 no effect, 100 complete control)
[7] = 125 g ai/ha; 0 = no effect, 100 = complete control; preemergence
[8] = 125 g ai/ha; visual rating, scale 0 (no effect) to 100 (complete control); postemergence
[9] = 500 g ai/ha; visual rating, 0 = no effect, 100 = complete control; preemergence
[10] = postemergence, 500 g ai/ha; scale 0 to 100, 0 is no effect, 100 is complete control
[11] = 250 g ai/ha, scale 0-100, preemergence
[12] = 500 g ai/ha, scale 0 to 100 (0 no effect, 100 complete control), visual, 12 to 14 days, preemergence
[13] = 62 g ai/ha, preemergence, scale 0 to 100
[14] = 125 g ai/ha, scale 0 (no effect) to 100 (complete control), visual, 12 to 14 days, preemergence
[15] = Preemergence, 500 g ai/ha, scale 0 to 100, 0 no effect, 100 complete control
[16] = 125 g ai/ha, scale 0 (no effect) to 100 (complete control), visual, 12 to 14 days
[17] = 500 g ai/ha; visual rating 0-100, 0 no effect, 100 complete control; preemergence
[18] = postemergence, 125 g ai/ha; visual rating, scale 0 (no effect) to 100 (complete control)
[19] = postemergence, 500 g ai/ha; visual rating, scale 0 (no effect) to 100 (complete control)
[20] = preemergence, 125 g ai/ha; 0 to 100 scale, 0 is no effect, 100 is complete control
[21] = Postemergence, 250 g ai/ha, scale 0 to 100, 0 no effect, 100 complete control
[22] = postemergence, 125 g ai/ha, scale 0 to 100
[23] = postemergence, 62 g ai/ha, scale 0 to 100

## CCn1nc(C(C)(C)C)cc1C(=O)Nc1cncc(C(=O)N(C)C)n1 [Compound 287]
Velvetleaf [1]; [3]
  Velvetleaf plant response rating: 55
Velvetleaf [1]; [4]
  Plant response rating, Velvetleaf: 65
Velvetleaf [1]; [5]
  Velvetleaf plant response rating: 100
Velvetleaf [1]; [6]
  Velvetleaf plant response rating: 50
corn; [7]
  Corn plant response rating (0 to 100 scale): 0
corn; [8]
  Corn plant response rating: 0
corn; [9]
  Plant response rating, Corn: 30
corn; [10]
  Corn plant response rating: 70
Large crabgrass; [7]
  Crabgrass, Large plant response rating (0 to 100 scale): 70
Large crabgrass; [8]
  Crabgrass, Large plant response rating: 0
Large crabgrass; [9]
  Plant response rating, Crabgrass, Large: 100
Large crabgrass; [10]
  Crabgrass, Large plant response rating: 0
Surinam grass; [11]
  Plant response rating, Surinam Grass: 65
Surinam grass; [12]
  Plant response rating, Surinam Grass: 95
cocklebur; [13]
  Plant response rating, Cocklebur: 0
cocklebur; [14]
  Plant response rating, Cocklebur: 0
cocklebur; [11]
  Plant response rating, Cocklebur: 10
cocklebur; [15]
  Cocklebur plant response rating: 60
Eastern black nightshade; 62 g ai/ha, scale 0 to 100
  Plant response rating, Nightshade: 95
Eastern black nightshade; [16]
  Plant response rating, Nightshade: 100
Eastern black nightshade; 250 g ai/ha, scale 0-100
  Plant response rating, Nightshade: 100
Eastern black nightshade; 500 g ai/ha, scale 0 to 100 (0 no effect, 100 complete control), visual, 12 to 14 days
  Plant response rating, Nightshade: 100
pigweed; [13]
  Plant response rating, Pigweed: 100
pigweed; [14]
  Plant response rating, Pigweed: 100
pigweed; [11]
  Plant response rating, Pigweed: 100
pigweed; [12]
  Plant response rating, Pigweed: 100
soybean; [13]
  Plant response rating, Soybean: 0
soybean; [11]
  Plant response rating, Soybean: 85
soybean; [12]
  Plant response rating, Soybean: 95
Velvetleaf [2]; [13]
  Plant response rating, Velvetleaf: 40
Velvetleaf [2]; [11]
  Plant response rating, Velvetleaf: 100
Velvetleaf [2]; [12]
  Plant response rating, Velvetleaf: 100

## CCn1nc(C(C)(C)C)cc1C(=O)Nc1cccc(C#N)c1 [Compound 139]
Velvetleaf [1]; [3]
  Velvetleaf plant response rating: 25
Velvetleaf [1]; [4]
  Plant response rating, Velvetleaf: 40
Velvetleaf [1]; [5]
  Velvetleaf plant response rating: 80
Velvetleaf [1]; [6]
  Velvetleaf plant response rating: 50
corn; [17]
  Plant response rating, Corn: 40
corn; [18]
  Corn plant response rating: 10
corn; [19]
  Corn plant response rating: 20
corn; [20]
  Plant response rating, Corn: 10
Large crabgrass; [17]
  Plant response rating, Crabgrass, Large: 100
Large crabgrass; [18]
  Crabgrass, Large plant response rating: 10
Large crabgrass; [19]
  Crabgrass, Large plant response rating: 20
Large crabgrass; [20]
  Plant response rating, Crabgrass, Large: 60
Surinam grass; 62 g ai/ha, preemergence
  Plant response rating (0 = no effect, 100 = complete control), Surinam Grass: 0
Surinam grass; [14]
  Plant response rating, Surinam Grass: 20
Surinam grass; [21]
  Plant response rating, Surinam Grass: 0
Surinam grass; [22]
  Plant response rating, Surinam Grass: 0
Surinam grass; [23]
  Plant response rating, Surinam Grass: 0
cocklebur; 62 g ai/ha, preemergence
  Plant response rating (0 = no effect, 100 = complete control), Cocklebur: 0
cocklebur; [14]
  Plant response rating, Cocklebur: 0
cocklebur; 250 g ai/ha, scale 0 to 100 (0 no effect, 100 complete control), visual, 12 to 14 days, preemergence
  Plant response rating, Cocklebur: 0
cocklebur; [21]
  Plant response rating, Cocklebur: 10
cocklebur; [22]
  Plant response rating, Cocklebur: 10
cocklebur; postemergence, 31 g ai/ha, scale 0 to 100
  Plant response rating, Cocklebur: 5
cocklebur; [23]
  Plant response rating, Cocklebur: 5
Eastern black nightshade; 62 g ai/ha
  Plant response rating (0 = no effect, 100 = complete control), Nightshade: 95
Eastern black nightshade; [16]
  Plant response rating, Nightshade: 100
pigweed; 62 g ai/ha, preemergence
  Plant response rating (0 = no effect, 100 = complete control), Pigweed: 100
pigweed; [14]
  Plant response rating, Pigweed: 100
pigweed; [21]
  Plant response rating, Pigweed: 80
pigweed; [22]
  Plant response rating, Pigweed: 65
pigweed; [23]
  Plant response rating, Pigweed: 50
soybean; [14]
  Plant response rating, Soybean: 10
soybean; [21]
  Plant response rating, Soybean: 35
soybean; [22]
  Plant response rating, Soybean: 30
soybean; [23]
  Plant response rating, Soybean: 20
Velvetleaf [2]; [14]
  Plant response rating, Velvetleaf: 30
Velvetleaf [2]; [21]
  Plant response rating, Velvetleaf: 50
Velvetleaf [2]; [22]
  Plant response rating, Velvetleaf: 50
Velvetleaf [2]; [23]
  Plant response rating, Velvetleaf: 30

## CCn1nc(C(C)(C)C)cc1C(=O)Nc1cc(C(=O)N(C)C)ccc1F [Compound 6, N-[5-[(dimethylamino)carbonyl]-2-fluorophenyl]-3-(1,1-dimethylethyl)-1-ethyl-1H-pyrazole-5-carboxamide]
Velvetleaf [1]; post-emergence, Postemergence, 500 g ai/ha, 0 to 100 scale, 0 no effect, 100 complete control, read-out: Plant response rating, Velvetleaf
  pest or weed control at 500 g/ha: 90%
Velvetleaf [1]; post-emergence, Postemergence, 2000 g ai/ha, 0 to 100 scale, 0 no effect, 100 complete control, read-out: Plant response rating, Velvetleaf
  pest or weed control at 2000 g/ha: 95%
Velvetleaf [1]; pre-emergence, Preemergence, 500 g ai/ha, visual rating, 0 to 100 scale (0 no effect, 100 complete control), read-out: Velvetleaf plant response rating
  pest or weed control at 500 g/ha: 100%
Velvetleaf [1]; pre-emergence, Preemergence, 2000 g ai/ha, 0 to 100 scale, 0 no effect, 100 complete control, read-out: Velvetleaf plant response rating
  pest or weed control at 2000 g/ha: 100%
corn; Zea mays, post-emergence, Postemergence, 125 g ai/ha; scale 0 (no effect) to 100 (complete control); read-out: Corn plant response rating
  plant injury at 125 g/ha: 0%
corn; Zea mays, post-emergence, Postemergence, 500 g ai/ha; visual rating after 13 to 15 days, scale 0 (no effect) to 100 (complete control)
  Corn plant response rating (crop injury, 0 = no effect, 100 = complete kill) at 500 g/ha: 60%
corn; Zea mays, pre-emergence, Preemergence, 500 g ai/ha; scale 0 to 100; read-out: Corn plant response rating
  plant injury at 500 g/ha: 90%
Large crabgrass; Digitaria sanguinalis, post-emergence, Postemergence, 125 g ai/ha; scale 0 (no effect) to 100 (complete control); read-out: Crabgrass, Large plant response rating
  pest or weed control at 125 g/ha: 20%
Large crabgrass; Digitaria sanguinalis, post-emergence, Postemergence, 500 g ai/ha; visual rating after 13 to 15 days, scale 0 (no effect) to 100 (complete control); read-out: Plant response rating, Crabgrass, Large
  pest or weed control at 500 g/ha: 30%
Large crabgrass; Digitaria sanguinalis, pre-emergence, Preemergence, 500 g ai/ha; scale 0 to 100; read-out: Crabgrass, Large plant response rating
  pest or weed control at 500 g/ha: 100%
Surinam grass; 62 g ai/ha, preemergence
  Plant response rating (0 = no effect, 100 = complete control), Surinam Grass: 85
Surinam grass; [15]
  Surinam Grass plant response rating: 100
Surinam grass; Urochloa decumbens, pre-emergence, 312 h, 250 g ai/ha, scale 0 to 100 (0 no effect, 100 complete control), visual, 12 to 14 days, read-out: Plant response rating, Surinam Grass
  pest or weed control at 250 g/ha: 100%
cocklebur; 62 g ai/ha, preemergence
  Plant response rating (0 = no effect, 100 = complete control), Cocklebur: 60
cocklebur; Xanthium strumarium, pre-emergence, 312 h, 125 g ai/ha, scale 0-100, read-out: Plant response rating, Cocklebur
  pest or weed control at 125 g/ha: 100%
cocklebur; Xanthium strumarium, pre-emergence, 312 h, 250 g ai/ha, scale 0 to 100 (0 no effect, 100 complete control), visual, 12 to 14 days, read-out: Plant response rating, Cocklebur
  pest or weed control at 250 g/ha: 100%
cocklebur; Xanthium strumarium, pre-emergence, 312 h, Preemergence, 500 g ai/ha, scale 0 to 100, 0 no effect, 100 complete control, read-out: Cocklebur plant response rating
  pest or weed control at 500 g/ha: 100%
Eastern black nightshade; 62 g ai/ha
  Plant response rating (0 = no effect, 100 = complete control), Nightshade: 100
Eastern black nightshade; [15]
  Nightshade plant response rating: 100
Eastern black nightshade; pre-emergence, 250 g ai/ha, scale 0 to 100 (0 no effect, 100 complete control), visual, 12 to 14 days, read-out: Plant response rating, Nightshade
  pest or weed control at 250 g/ha: 100%
pigweed; 62 g ai/ha, preemergence
  Plant response rating (0 = no effect, 100 = complete control), Pigweed: 100
pigweed; Amaranthus retroflexus, pre-emergence, 250 g ai/ha, scale 0 to 100 (0 no effect, 100 complete control), visual, 12 to 14 days, read-out: Plant response rating, Pigweed
  pest or weed control at 250 g/ha: 100%
pigweed; [15]
  Pigweed plant response rating: 100
soybean; 62 g ai/ha, preemergence
  Plant response rating (0 = no effect, 100 = complete control), Soybean: 70
soybean; Glycine max, pre-emergence, 250 g ai/ha, scale 0 to 100 (0 no effect, 100 complete control), visual, 12 to 14 days, read-out: Plant response rating, Soybean
  plant injury at 250 g/ha: 100%
soybean; [15]
  Soybean plant response rating: 100
Velvetleaf [2]; 62 g ai/ha, preemergence
  Plant response rating (0 = no effect, 100 = complete control), Velvetleaf: 40
Velvetleaf [2]; Abutilon theophrasti, pre-emergence, 250 g ai/ha, scale 0 to 100 (0 no effect, 100 complete control), visual, 12 to 14 days, read-out: Plant response rating, Velvetleaf
  pest or weed control at 250 g/ha: 100%
Velvetleaf [2]; [15]
  Velvetleaf plant response rating: 100
